From patent US7781441B2, “(3,4-dihydro-quinazolin-2-yl)-(2-aryloxy-ethyl)-amine” (Hoffmann-La Roche Inc., priority 2005, dated 2010)

target: T1, recombinant human 5-HT5A receptor (Homo sapiens, UniProt P47898); assay: [3H]LSD radioligand binding assay; conditions: [3H]LSD (approximately 1 nM); membranes from transiently expressed 5-HT5A receptors in HEK-EBNA cells; Ki by Cheng-Prussoff equation
T1 construct: expressed in transfected cells; host or cells: HEK-EBNA (Human Embryonic Kidney-EBNA) cells, transient cDNA expression; membranes
Procedure: Compounds of the invention were tested for 5-HT5A activity in the following assay.
A [^3H]LSD radioligand binding assay was used to determine the affinity of the compounds for the recombinant human 5-HT5A receptor, in membranes from transiently (cDNA) expressed 5-HT5A receptors in Human Embryonic Kidney-EBNA (HEK-EBNA) cells. Assay buffer consisted of Tris (50 mM) buffer containing 1 mM EGTA, 10 mM MgCl2 (pH 7.4) and 10 μM pargyline. The binding assay was carried out in 96-well-plates in the presence of [^3H]LSD (approximately 1 nM), approximately 2 μg/well of membrane protein, and 0.5 mg of Ysi-poly-l-lysine SPA beads in a final volume of 200 μl of buffer. Non-specific binding was defined using methiothepin 2 μM. Compounds were tested at 10 concentrations. All assays were conducted in duplicate and repeated at least two times. Assay plates were incubated for 120 min at room temperature before centrifugation. Bound ligand was determined using a Packard Topcount scintillation counter. IC50 values were calculated using a non-linear curve fitting program and Ki values calated using the Cheng-Prussoff equation.

T1 sequence (P47898 whole entry): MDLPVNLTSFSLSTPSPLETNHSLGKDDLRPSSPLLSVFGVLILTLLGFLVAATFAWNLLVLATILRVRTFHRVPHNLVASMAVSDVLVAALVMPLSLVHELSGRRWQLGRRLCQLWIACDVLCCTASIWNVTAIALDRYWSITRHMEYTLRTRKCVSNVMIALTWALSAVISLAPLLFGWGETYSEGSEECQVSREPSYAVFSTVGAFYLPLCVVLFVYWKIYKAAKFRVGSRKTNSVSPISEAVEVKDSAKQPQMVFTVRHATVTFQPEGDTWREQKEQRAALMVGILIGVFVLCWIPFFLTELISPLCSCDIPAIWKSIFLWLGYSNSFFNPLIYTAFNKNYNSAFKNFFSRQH

`COc1ccc2c(c1)CNC(NCCOc1ccccc1)=N2` [Example 15, (6-Methoxy-3,4-dihydro-quinazolin-2-yl)-(2-phenoxy-ethyl)-amine] and `COc1cccc(OCCNC2=Nc3ccccc3CN2)c1` [Example 16, (3,4-Dihydro-quinazolin-2-yl)-[2-(3-methoxy-phenoxy)-ethyl]-amine] are within 1.5-fold of each other in Ki: 0.076 µM for the first, 0.096 µM for the second.

Going from `Cc1cccc(OCCNC2=Nc3ccccc3CN2)c1` [Example 12, (3,4-Dihydro-quinazolin-2-yl)-(2-m-tolyloxy-ethyl)-amine] to `Clc1cccc(OCCNC2=Nc3ccccc3CN2)c1` [Example 18, [2-(3-Chloro-phenoxy)-ethyl]-(3,4-dihydro-quinazolin-2-yl)-amine], the Ki rises from 0.064 µM to 0.1 µM (1.6-fold). The first binds more tightly here.

Going from `Cc1ccc2c(c1)CNC(NCCOc1ccccc1Cl)=N2` [Example 58, [2-(2-Chloro-phenoxy)-ethyl]-(6-methyl-3,4-dihydro-quinazolin-2-yl)-amine] to `COc1ccc2c(c1)CNC(NCCOc1ccccc1Cl)=N2` [Example 56, [2-(2-Chloro-phenoxy)-ethyl]-(6-methoxy-3,4-dihydro-quinazolin-2-yl)-amine], the Ki rises from 0.0538 µM to 0.0831 µM (1.5-fold). The first binds more tightly here.

`COc1ccccc1OCCNC1=Nc2ccc(C)cc2CN1` [Example 64, [2-(2-Methoxy-phenoxy)-ethyl]-(6-methyl-3,4-dihydro-quinazolin-2-yl)-amine] and `COc1ccccc1OCCNC1=Nc2ccc(F)cc2CN1` [Example 29, (6-Fluoro-3,4-dihydro-quinazolin-2-yl)-[2-(2-methoxy-phenoxy)-ethyl]-amine] are within 1.5-fold of each other in Ki: 0.0197 µM for the first, 0.0199 µM for the second.

First: Fc1ccc(Br)c(OCCNC2=Nc3ccccc3CN2)c1 [Example 46, [2-(2-Bromo-5-fluoro-phenoxy)-ethyl]-(3,4-dihydro-quinazolin-2-yl)-amine]
Second: Brc1ccccc1OCCNC1=Nc2ccccc2CN1 [Example 37, [2-(2-Bromo-phenoxy)-ethyl]-(3,4-dihydro-quinazolin-2-yl)-amine]
The Ki of the first is 4-fold higher: 0.089 µM for the first, 0.0222 µM for the second. The second binds more tightly here.

First: COc1ccccc1OCCNC1=Nc2cccc(F)c2CN1 [Example 67, (5-Fluoro-3,4-dihydro-quinazolin-2-yl)-[2-(2-methoxy-phenoxy)-ethyl]-amine]
Second: Fc1cccc2c1CNC(NCCOc1ccccc1Cl)=N2 [Example 59, [2-(2-Chloro-phenoxy)-ethyl]-(5-fluoro-3,4-dihydro-quinazolin-2-yl)-amine]
The Ki of the first is 2.1-fold lower: 0.0236 µM for the first, 0.0484 µM for the second.

`Clc1ccc2c(c1Cl)CNC(NCCOc1ccccc1)=N2` [Example 14, (5,6-Dichloro-3,4-dihydro-quinazolin-2-yl)-(2-phenoxy-ethyl)-amine hydroiodide] and `Clc1cccc2c1CNC(NCCOc1ccccc1)=N2` [Example 9, (5-Chloro-3,4-dihydro-quinazolin-2-yl)-(2-phenoxy-ethyl)-amine hydroiodide] are within 1.5-fold of each other in Ki: 0.076 µM for the first, 0.053 µM for the second.

Going from `c1ccc(COc2ccccc2OCCNC2=Nc3ccccc3CN2)cc1` [Example 39, [2-(2-Benzyloxy-phenoxy)-ethyl]-(3,4-dihydro-quinazolin-2-yl)-amine] to `CCOc1ccccc1OCCNC1=Nc2ccccc2CN1` [Example 8, (3,4-Dihydro-quinazolin-2-yl)-[2-(2-ethoxy-phenoxy)-ethyl]-amine], the Ki falls from 0.0867 µM to 0.038 µM (2.3-fold). The second binds more tightly here.

First: Fc1cccc2c1CNC(NCCOc1ccccc1)=N2 [Example 7, (5-Fluoro-3,4-dihydro-quinazolin-2-yl)-(2-phenoxy-ethyl)-amine hydroiodide]
Second: Cc1cccc2c1CNC(NCCOc1ccccc1)=N2 [Example 10, (5-Methyl-3,4-dihydro-quinazolin-2-yl)-(2-phenoxy-ethyl)-amine hydroiodide]
The Ki of the first is 1.5-fold lower: 0.03 µM for the first, 0.046 µM for the second. The first binds more tightly here.

`Cc1ccc2c(c1)CNC(NCCOc1ccccc1)=N2` [Example 4, (6-Methyl-3,4-dihydro-quinazolin-2-yl)-(2-phenoxy-ethyl)-amine] and `Fc1ccc2c(c1)CNC(NCCOc1ccccc1)=N2` [Example 2, (6-Fluoro-3,4-dihydro-quinazolin-2-yl)-(2-phenoxy-ethyl)-amine] are within 1.5-fold of each other in Ki: 0.025 µM for the first, 0.018 µM for the second.

First: Fc1ccccc1OCCNC1=Nc2ccccc2CN1 [Example 6, (3,4-Dihydro-quinazolin-2-yl)-[2-(2-fluoro-phenoxy)-ethyl]-amine]
Second: Clc1ccccc1OCCNC1=Nc2ccccc2CN1 [Example 3, [2-(2-Chloro-phenoxy)-ethyl]-(3,4-dihydro-quinazolin-2-yl)-amine]
The Ki of the first is 1.8-fold higher: 0.034 µM for the first, 0.019 µM for the second. The second binds more tightly here.

First: COc1cccc(F)c1OCCNC1=Nc2ccccc2CN1 [Example 45, (3,4-Dihydro-quinazolin-2-yl)-[2-(2-fluoro-6-methoxy-phenoxy)-ethyl]-amine]
Second: COc1cccc(OC)c1OCCNC1=Nc2ccccc2CN1 [Example 41, (3,4-Dihydro-quinazolin-2-yl)-[2-(2,6-dimethoxy-phenoxy)-ethyl]-amine]
The Ki of the first is 2.1-fold lower: 0.0429 µM for the first, 0.0903 µM for the second. The first binds more tightly here.

First: c1ccc(OCCNC2=Nc3ccccc3CN2)cc1 [Example 5, (3,4-Dihydro-quinazolin-2-yl)-(2-phenoxy-ethyl)-amine hydroiodide]
Second: Fc1cccc(OCCNC2=Nc3ccccc3CN2)c1 [Example 17, (3,4-Dihydro-quinazolin-2-yl)-[2-(3-fluoro-phenoxy)-ethyl]-amine]
The Ki of the first is 2.3-fold lower: 0.042 µM for the first, 0.096 µM for the second.

Going from `COc1ccc2c(c1)CNC(NCCOc1ccccc1OC)=N2` [Example 62, (6-Methoxy-3,4-dihydro-quinazolin-2-yl)-[2-(2-methoxy-phenoxy)-ethyl]-amine] to `COc1ccccc1OCCNC1=Nc2ccccc2CN1` [Example 1, (3,4-Dihydro-quinazolin-2-yl)-[2-(2-methoxy-phenoxy)-ethyl]-amine], the Ki falls from 0.0536 µM to 0.0075 µM (7.1-fold).

Compared with `N#Cc1ccccc1OCCNC1=Nc2ccccc2CN1` [Example 38, 2-[2-(3,4-Dihydro-quinazolin-2-ylamino)-ethoxy]-benzonitrile], `CSc1ccccc1OCCNC1=Nc2ccccc2CN1` [Example 35, (3,4-Dihydro-quinazolin-2-yl)-[2-(2-methylsulfanyl-phenoxy)-ethyl]-amine] is 1.5-fold lower in Ki: 0.054 µM for the first, 0.0357 µM for the second.

`CC1NC(NCCOc2ccccc2)=Nc2ccccc21` (stereo not shown) [Example 11, (4-Methyl-3,4-dihydro-quinazolin-2-yl)-(2-phenoxy-ethyl)-amine hydroiodide] and `C/C=C/c1ccccc1OCCNC1=Nc2ccccc2CN1` [Example 34, (3,4-Dihydro-quinazolin-2-yl)-[2-(2-propenyl-phenoxy)-ethyl]-amine] are within 1.5-fold of each other in Ki: 0.058 µM for the first, 0.0587 µM for the second.

`COc1ccc(C)cc1OCCNC1=Nc2ccccc2CN1` [Example 44, (3,4-Dihydro-quinazolin-2-yl)-[2-(2-methoxy-5-methyl-phenoxy)-ethyl]-amine] and `FC(F)(F)Oc1ccccc1OCCNC1=Nc2ccccc2CN1` [Example 13, (3,4-Dihydro-quinazolin-2-yl)-[2-(2-trifluoromethoxy-phenoxy)-ethyl]-amine] are within 1.5-fold of each other in Ki: 0.0825 µM for the first, 0.072 µM for the second.
